According to US10045954B2, “Use of novel anti-HPV pharmaceutical preparation” (INSTITUTE OF BIOMEDICAL ENGINEERING, CHINESE ACADEMY OF …, priority 2013, dated 2018):

Tested on: human cervical cancer Caski cells (HPV16 positive)
Assay: Cytotoxicity assay (MTT, Reed-Muench)
Format: cell-based
Settings: 72 h
Protocol: (1) Cytotoxicity assay: human cervical cancer Caski cells (HPV16 positive) at an exponential phase cultured through a conventional culturing method is digested by a trypsase, such that the attached cells are detached. The cells are suspended in a liquid medium containing 10% of fetal bovine serum, and are cultured by inoculating in a 96-well plate, each well containing 1×10^5 cells. The cells are incubated in a CO2 incubator for 24 h to make the cells be attached. labeled amount of paracetamol or paracetamol pharmaceutical preparation prepared from examples 1-21 is dissolved in DMSO used for cell culture, and then the solution is diluted with the liquid medium into a series of drug culture media with increasing concentrations, wherein the concentrations are sequentially 25, 50, 100, 200 and 400 μg/mL. The culture medium is decanted, 100 μL drug culture medium formulated according to a multiple relationship is added into the administered group, while a culture medium is used instead of the drug solution for the control group, wherein four vice holes are used at each concentration, and the cells are incubated in a CO2 incubator for 72 h. The median toxic concentration (TC50) and maximal atoxic concentration (TC0) are calculated based on a Reed-Muench method, by using a MTT method.

With `CC(=O)Nc1ccc(O)cc1` [Example 1, paracetamol] as the compound, how does the TC0 read?
Its TC0 is 200 µg/mL.

What about the TC50 of the same compound?
Its TC50 is over 200 µg/mL.
